Reference: US12084436B2, “Heterocyclic compound” (Takeda Pharmaceutical Company Limited, priority 2019, dated 2024)

target: T1, HDAC6 enzyme (Homo sapiens, UniProt Q9UBN7); assay: HDAC6 enzyme inhibitory assay (HDAC-Glo I/II Assay kit, luminescence); format: biochemical; conditions: 10 μM test compound; wells without enzyme = 100% inhibition; read-out: HDAC6 inhibitory rate (%) (10 μM)
T1 construct: prepared by transducing full length HDAC6 gene into Sf-9 insect cells; GST; purchased SignalChem; host or cells: Sf-9 insect cells
T1 sequence (Q9UBN7 1-1215): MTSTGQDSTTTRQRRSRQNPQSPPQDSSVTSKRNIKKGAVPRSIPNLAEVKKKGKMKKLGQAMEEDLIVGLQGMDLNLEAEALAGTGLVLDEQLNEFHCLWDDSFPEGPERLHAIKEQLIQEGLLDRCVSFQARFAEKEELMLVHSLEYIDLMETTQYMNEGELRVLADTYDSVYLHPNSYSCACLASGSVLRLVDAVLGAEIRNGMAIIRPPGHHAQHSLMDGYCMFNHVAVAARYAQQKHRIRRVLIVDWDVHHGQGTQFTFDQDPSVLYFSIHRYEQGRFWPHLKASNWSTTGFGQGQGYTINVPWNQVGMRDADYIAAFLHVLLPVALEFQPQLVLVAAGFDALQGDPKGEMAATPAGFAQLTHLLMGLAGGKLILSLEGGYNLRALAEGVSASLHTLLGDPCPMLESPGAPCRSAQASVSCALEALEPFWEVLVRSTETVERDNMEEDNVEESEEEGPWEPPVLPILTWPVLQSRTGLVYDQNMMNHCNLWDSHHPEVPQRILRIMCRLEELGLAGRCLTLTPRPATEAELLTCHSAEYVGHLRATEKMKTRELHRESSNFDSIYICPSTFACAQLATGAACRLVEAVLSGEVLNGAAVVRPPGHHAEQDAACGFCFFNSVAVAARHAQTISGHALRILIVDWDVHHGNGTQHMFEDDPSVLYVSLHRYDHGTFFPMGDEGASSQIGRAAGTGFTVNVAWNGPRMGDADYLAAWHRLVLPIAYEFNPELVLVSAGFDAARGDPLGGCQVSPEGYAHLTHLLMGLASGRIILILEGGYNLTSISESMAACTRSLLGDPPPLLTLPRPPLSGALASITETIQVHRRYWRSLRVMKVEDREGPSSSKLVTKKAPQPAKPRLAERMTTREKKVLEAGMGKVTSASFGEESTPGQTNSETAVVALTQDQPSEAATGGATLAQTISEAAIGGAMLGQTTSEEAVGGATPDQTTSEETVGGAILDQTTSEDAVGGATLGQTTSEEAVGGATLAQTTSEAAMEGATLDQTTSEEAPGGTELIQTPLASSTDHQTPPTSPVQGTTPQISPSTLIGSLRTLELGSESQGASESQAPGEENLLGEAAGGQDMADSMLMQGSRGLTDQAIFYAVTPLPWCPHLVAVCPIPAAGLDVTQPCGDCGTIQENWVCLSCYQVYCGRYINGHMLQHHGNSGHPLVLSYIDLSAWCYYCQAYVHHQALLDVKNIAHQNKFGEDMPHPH
Outline: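 Full-length human HDAC6, GST-purified from Sf-9 cells, was preincubated with compound for 60 min at room temperature in Tris-HCl pH 7.5 buffer with glutathione and Tween-20. Substrate-developer was then added, and luminescence was read after 20 min at room temperature. Inhibition was expressed relative to no-enzyme wells, taken as 100% inhibition.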

Structure (SMILES) | inhibition at 10 µM [%]
Fc1cccc(Cc2cncnc2-c2cc(-c3nnc(C(F)F)o3)ccn2)c1 [Example 90a, 4-{4-[5-(difluoromethyl)-1,3,4-oxadiazol-2-yl]pyridin-2-yl}-5-[(3-fluorophenyl)methyl]pyrimidine] | 98
CC(c1cccc(F)c1)n1ccnc1-c1cc(-c2nnc(C(F)F)o2)ccn1 (stereo not drawn) [Example 92a, 4-[5-(difluoromethyl)-1,3,4-oxadiazol-2-yl]-2-{1-[1-(3-fluorophenyl)ethyl]-1H-imidazol-2-yl}pyridine] | 100
FC(F)c1nnc(-c2ccnc(-c3nccn3Cc3cncc(Cl)c3)c2)o1 [Example 93a, 2-{1-[(5-chloropyridin-3-yl)methyl]-1H-imidazol-2-yl}-4-[5-(difluoromethyl)-1,3,4-oxadiazol-2-yl]pyridine] | 100
N#Cc1cccc(Cn2ccnc2-c2cc(-c3nnc(C(F)F)o3)ccn2)n1 [Example 94a, 6-[(2-{4-[5-(difluoromethyl)-1,3,4-oxadiazol-2-yl]pyridin-2-yl]-1H-imidazol-1-yl)methyl]pyridine-2-carbonitrile] | 99

Next, values leading:

inhibition at 10 µM [%] | Structure (SMILES)
97 | Fc1cccc(Cc2ncnn2-c2cc(-c3nnc(C(F)F)o3)ccn2)c1 [Example 89a, 4-[5-(difluoromethyl)-1,3,4-oxadiazol-2-yl]-2-{5-[(3-fluorophenyl)methyl]-1H-1,2,4-triazol-1-yl}pyridine]
100 | Cn1ccc(OC2CCOCC2)c(-c2cc(-c3nnc(C(F)F)o3)ccn2)c1=O [Example 91a, 4-[5-(difluoromethyl)-1,3,4-oxadiazol-2-yl]-1′-methyl-4′-[(oxan-4-yl)oxy][2,3′-bipyridine]-2′(1′H)-one]
100 | N#Cc1ccnc(Cn2ccnc2-c2cc(-c3nnc(C(F)F)o3)ccn2)c1 [Example 95a, 2-[(2-{4-[5-(difluoromethyl)-1,3,4-oxadiazol-2-yl]pyridin-2-yl}-1H-imidazol-1-yl)methyl]pyridine-4-carbonitrile]

tested on: tauopathy mouse model; assay: not given; conditions: cited from earlier work

Structure (SMILES) | acetylation of tubulin | therapeutic effectiveness
CN1CCc2c(c3ccccc3n2Cc2ccc(C(=O)NO)cc2)C1 [Tubastatin A] | increases acetylation of tubulin | shows therapeutic effectiveness
